The text below walks through data of US20160376659A1, “Breast Cancer Biomarker” (The University of Manchester, priority 2015, published 2016).

The subject of one test is NOTCH4-ICD and JAG1. Kind of test: NOTCH4-ICD and JAG1 Western Blot in MCF-7 cells. In kind it is cell-based, human. To be noted: short term treatment of MCF-7 cells in vitro. The protocol:
MCF7, T47D and ZR-75-1 cell lines were purchased from American Tissue Culture Collection (ATCC) and cultured in DMEM/F-12, GlutaMAX (Gibco) with 10% FBS (Gibco). Cells were treated for 3 days or 6 days with ethanol (control), 10^-6M 4-OH-tamoxifen or 10^−7M fulvestrant and/or with 10 μM of gamma-secretase inhibitor RO4929097 (Cellagen Technology) or DMSO (control).
Proteins were extracted with Protein Lysis Buffer (25 mM HEPES, 50 mM NaCl, 30 mM NaPP, 50 mM NaF, 1% Triton-X-100, 10% Glycerol, 5 mM EDTA, Protease Inhibitor cocktail, 1 μM PMSF). Lysates were placed on a rotator for 1 hour at 4° C., then were centrifuged at 10000 g at 4° C. for 10 min, and supernatants were collected. Protein concentrations were assessed using the BCA Protein Assay Kit (Thermo Scientific, 23225). Proteins were separated on a 10% gel (Biorad, 456-1033) by SDS-PAGE at 200V for 1 hour, and then were transferred on polyvinylidene difluoride (PVDF) membranes (BioRad, 170-4157) at 25 V/1,300 mA for 15 min using a Trans Blot Turbo (BioRad, 170-4155). Membranes were blocked in a solution of PBS containing 0.05% Tween-20 and 5% skimmed milk (Marvel) for 1 h at room temperature and primary antibodies were incubated overnight at 4° C. […]
In general terms: A western blot detects proteins with antibodies after separation by electrophoresis.

For test [1], the system named is Notch target genes HEY1 and HES1. Kind of test: HEY1 and HES1 expression by real-time PCR in PDX tumors treated in vivo. Further details: species or system mice. To be noted: PDX tumors treated in vivo 2 weeks. The protocol: Tamoxifen citrate (Sigma, T9262, 10 mg/kg/day) and RO4929097 (Cellagen Technology, 3 mg/kg/day) were administered by oral gavage (0.1 ml/dose) on a five day from seven basis (weekends excluded) for fourteen days. Tamoxifen citrate and RO4929097 were prepared in 1% carboxymethylcellulose (Sigma, C9481) dissolved in distilled water. Fulvestrant (kindly provided by Astrazeneca, 200 mg/kg/week) was administered by subcutaneous injection (0.1 ml/dose) on a weekly basis for fourteen days. The HBC×22 and HBC×34 tamoxifen-resistant PDXs have been established by our collaborators in the Curie Institute (Cottu el al, 2014) and were treated for fourteen days in the presence or absence of the gamma-secretase inhibitor RO4929097 (10 mg/kg/day, oral gavage). […]
Total RNA was extracted using the RNeasy Plus Mini Kit (QIAGEN, 74104) and the concentration and purity determined using an ND-1000 spectrophotometer (NanoDrop Technologies). […] Quantitative real-time PCR reactions were set up in triplicate in 384-well plates and performed on the 7900 PCR machine (Applied Biosystems) using TaqMan® Universal PCR Master Mix (Applied Biosystems) and probes from Universal Probe Library (Roche). […] The expression levels were calculated using the ΔΔCt method and normalised to the housekeeping genes 36B4 and GAPDH. […]
For orientation: Quantitative PCR measures a nucleic acid by following its amplification.

Test [2] has as its system HBC×22 and HBC×34 tamoxifen-resistant PDXs. Kind of test: BCSC activity (MFE, ALDH-positive cells) in tamoxifen-resistant PDXs treated in vivo. Also on record: species or system mice. To be noted: RO4929097 10 mg/kg/day oral gavage, 14 days. The procedure: Fulvestrant (kindly provided by Astrazeneca, 200 mg/kg/week) was administered by subcutaneous injection (0.1 ml/dose) on a weekly basis for fourteen days. […] Xenografts were collected in ice cold DMEM media for live cell assays, histological analysis and RNA and protein extraction. Patient-derived xenograft single cell suspension was obtained using a collagenase-hyaluronidase mixture for digestion (Stem Cell Technologies). […] Primary mammospheres were dissociated and replated in secondary mammosphere suspension culture for a further 7-9 days to measure self-renewal. Patient-derived xenograft cells were cultured for 7-10 days. For cell lines, cells were pre-treated in adherence and then cultured for 5 days in mammosphere culture. Mammosphere formation efficiency (MFE) was calculated by dividing the number of mammospheres formed (≧50 μm) by the original number of single cells seeded (500 cells/cm^2 for primary cells and 200 cells/cm^2 for cell lines) and is expressed as fold change normalised to control or as the mean percentage of MFE (Shaw et al., 2012). Dissociated single cells were suspended in Aldefluor assay buffer containing an ALDH substrate, bodipyaminoacetaldehyde (BAAA) at […], and incubated for 45 min at 37° C. […] Data were acquired on a LSR II (BD) flow cytometer and analysed using the BD FACSDiva™ software.

As for `CC/C(=C(\c1ccccc1)c1ccc(OCCN(C)C)cc1)c1ccccc1` [tamoxifen, (Z)-2-[4-(1,2-diphenylbut-1-enyl)phenoxy]-N,N-dimethylethanamine], in the test with NOTCH4-ICD and JAG1, the “NOTCH4-ICD and JAG1 protein expression” value is recorded as “up-regulated”. Also, the “HEY1 and HES1 expression” value in test [1] is reported as “increased”.

With `CC(C)(C(=O)NCC(F)(F)C(F)(F)F)C(=O)N[C@@H]1C(=O)Nc2ccccc2-c2ccccc21` [RO4929097], the “enrichment of BCSCs” value in test [2] is on record as “significantly reduced”.

For the molecule `C[C@]12CC[C@@H]3c4ccc(O)cc4C[C@@H](CCCCCCCCC[S+]([O-])CCCC(F)(F)C(F)(F)F)[C@H]3[C@@H]1CC[C@@H]2O` (some centres unmarked) [fulvestrant], in the test on NOTCH4-ICD and JAG1, the “NOTCH4-ICD and JAG1 protein expression” value is recorded as “up-regulated”. Moreover, in test [1], the “HEY1 and HES1 expression” value is “increased”.
